Reference: patent publication US11584744B2 (UNIVERSITY OF WASHINGTON, priority 2017, dated 2023)
≈ marks a conversion by molar mass, not a printed value. Read-outs that look alike come from different tables or passages of the source.

Tests used:
S. pyogenes (ATCC 19615) = experiment: MIC susceptibility testing; assay type: cell-based; settings: Streptococcus pyogenes
[1] = test system: S. epidermidis (ATCC 12228); experiment: MIC susceptibility testing; assay type: cell-based; settings: Staphylococcus epidermidis, ATCC12228; read-out: S. epidermidis (ATCC 12228) MIC
E. faecalis (ATCC 29212) = experiment: MIC susceptibility testing; assay type: cell-based; settings: Enterococcus faecalis, ATCC29212; read-out: E. faecalis (ATCC 29212) MIC
E. faecium (ATCC 19434) = experiment: MIC susceptibility testing; assay type: cell-based; settings: Enterococcus faecium, ATCC19434; read-out: E. faecium (ATCC 19434) MIC
Summary of the method: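 CLSI broth microdilution in triplicate, 5×10^5 CFU/mL final, ≤0.5% DMSO; MHB for S. aureus, CA-MHB for E. coli and E. faecium, CA-MHB plus 3% laked horse blood for S. pyogenes (5% CO2).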

[2] = test system: S. epidermidis (ATCC 49134); experiment: MIC susceptibility testing; assay type: cell-based; settings: Staphylococcus epidermidis, ATCC49134; read-out: S. epidermidis (ATCC 49134) MIC
[3] = Liver microsome stability; assay type: in vitro ADME
Method: Microsome stability. Liver microsome stability assays were done by contract research laboratory, Wuxi AppTec Co. (Hubei, China). Briefly, compounds at 1 μM concentration were incubated in singlet with human or CD-1 mouse liver microsomes for 6 time points (0, 5, 10, 20, 30, and 60 min). Loss of parent compound was quantified by liquid chromatography/tandem mass spectrometry.

[4] = test system: E. coli MB4827 (wild-type); experiment: MIC against permeability strains of E. coli; assay type: cell-based; settings: Escherichia coli, read-out: MIC MB4827 (wild-type)
Method: (§1) Bacterial strains. Strains with ATCC designations were either obtained directly from the American Type Culture Collection (Manassas, Va.) or were kindly provided by the University of Washington Clinical Microbiology laboratory. Escherichia coli permeability mutants (properties shown in Table 1) were provided as a gift from Dr. Katherine Young at Merck (Rahway, N.J.).
(§2) Susceptibility testing: Minimum inhibitory concentration (MIC) determinations were performed in triplicate in 96-well round bottom microtiter plates (Corning, Corning N.Y.) as described by the Clinical and Laboratory Standards Institute (CLSI). Serial two-fold dilutions of compounds were added to plates in 50 μL volumes. An additional 50 μL of media containing bacterial cells (1×10^6 CFUs/mL) was then added to each well. Maximum DMSO concentrations were 0.5%. Plates were incubated at 37° C. for at least 18 h before reading the susceptibility result by optical absorbance (OD600) using a BioTek ELx800. The lowest concentration causing ≥90% growth inhibition compared to the untreated control was recorded as the MIC (and also corresponded to the visual MIC). MICs were measured at least twice and the higher value (if different) was recorded herein.

E. coli MB5747 (tolC) = experiment: microbe, parasite or virus in culture; assay type: cell-based; settings: Escherichia coli, read-out: MIC MB5747 (tolC)
Method: as §1, §2

E. coli MB4902 (lpxC) = experiment: microbe, parasite or virus in culture; assay type: cell-based; settings: Escherichia coli, read-out: MIC MB4902 (lpxC)
Method: as §1, §2

[5] = test system: E. coli MB5746 (lpxC, tolC); experiment: microbe, parasite or virus in culture; assay type: cell-based; settings: Escherichia coli, read-out: MIC MB5746 (lpxC, tolC)
Method: as §1, §2

MetRS (T. brucei) = biological target: T1, MetRS (T. brucei) (Trypanosoma brucei brucei, UniProt Q38C91); experiment: MetRS (T. brucei) enzyme inhibition; assay type: biochemical
T1 sequence (Q38C91 1-773): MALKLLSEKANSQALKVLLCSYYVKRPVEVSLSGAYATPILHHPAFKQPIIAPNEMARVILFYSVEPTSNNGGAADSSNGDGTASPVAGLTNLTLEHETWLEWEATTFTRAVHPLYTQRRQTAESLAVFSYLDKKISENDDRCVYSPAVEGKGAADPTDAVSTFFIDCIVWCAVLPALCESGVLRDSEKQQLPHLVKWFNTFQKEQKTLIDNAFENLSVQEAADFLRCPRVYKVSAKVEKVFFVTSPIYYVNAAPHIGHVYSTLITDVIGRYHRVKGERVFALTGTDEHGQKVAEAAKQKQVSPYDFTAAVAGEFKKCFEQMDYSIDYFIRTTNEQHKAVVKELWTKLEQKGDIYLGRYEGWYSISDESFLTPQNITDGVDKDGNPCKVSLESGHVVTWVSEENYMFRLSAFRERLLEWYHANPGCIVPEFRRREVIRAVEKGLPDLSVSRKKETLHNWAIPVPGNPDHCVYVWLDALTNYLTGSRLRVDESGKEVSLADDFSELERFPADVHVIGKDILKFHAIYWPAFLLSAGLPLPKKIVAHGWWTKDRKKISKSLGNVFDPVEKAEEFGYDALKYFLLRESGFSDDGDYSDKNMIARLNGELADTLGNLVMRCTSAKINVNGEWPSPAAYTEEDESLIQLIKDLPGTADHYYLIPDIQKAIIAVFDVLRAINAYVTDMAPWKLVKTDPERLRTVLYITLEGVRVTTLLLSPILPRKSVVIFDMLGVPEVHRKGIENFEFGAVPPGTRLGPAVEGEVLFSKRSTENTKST

MetRS (C. parvum) = MetRS (C. parvum) (Cryptosporidium parvum, UniProt Q5CVN0); experiment: MetRS (C. parvum) enzyme inhibition; assay type: biochemical; settings: read-out: (C) MetRS (C. parvum) IC50
MetRS (C. parvum), sequence (Q5CVN0 entry or part of it): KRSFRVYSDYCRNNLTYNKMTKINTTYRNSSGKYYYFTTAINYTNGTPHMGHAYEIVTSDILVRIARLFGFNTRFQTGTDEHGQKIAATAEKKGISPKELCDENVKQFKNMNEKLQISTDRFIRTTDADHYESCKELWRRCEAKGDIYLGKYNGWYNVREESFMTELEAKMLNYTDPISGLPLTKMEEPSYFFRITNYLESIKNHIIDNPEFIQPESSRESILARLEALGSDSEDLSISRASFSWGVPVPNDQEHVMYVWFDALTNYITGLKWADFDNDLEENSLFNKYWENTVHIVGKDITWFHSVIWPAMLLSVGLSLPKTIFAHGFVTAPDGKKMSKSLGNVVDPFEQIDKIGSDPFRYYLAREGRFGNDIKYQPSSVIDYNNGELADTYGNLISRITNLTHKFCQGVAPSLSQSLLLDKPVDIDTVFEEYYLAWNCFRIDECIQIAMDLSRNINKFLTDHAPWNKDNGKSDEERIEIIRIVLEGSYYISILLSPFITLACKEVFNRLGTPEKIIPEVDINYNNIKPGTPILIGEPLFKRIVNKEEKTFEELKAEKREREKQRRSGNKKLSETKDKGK

C. parvum = C. parvum growth inhibition; assay type: cell-based, Cryptosporidium parvum; settings: read-out: (J) C. parvum EC50
[6] = ATCC19615, 18 h, medium with 3% laked horse blood, read-out: S. pyogenes (ATCC 19615) MIC
[7] = human, human liver microsomes, read-out: Microsome stability: Human T½
[8] = mouse liver microsomes, CD-1 mouse, read-out: Microsome stability: Mouse T½
[9] = ATCC19615, S. pyogenes ATCC 19615, read-out: (H) S. pyogenes (ATCC 19615) MIC

| SMILES | MIC (S. pyogenes (ATCC 19615); [6]) [µg/mL] | MIC [1] [µg/mL] | MIC (E. faecalis (ATCC 29212)) [µg/mL] | MIC (E. faecium (ATCC 19434)) [µg/mL] | MIC [2] [µg/mL] | half-life at 1 μM [3, 7] [min] | half-life at 1 μM [3, 8] [min] | MIC [4] [µg/mL] | MIC (E. coli MB5747 (tolC)) [µg/mL] | MIC (E. coli MB4902 (lpxC)) [µg/mL] | MIC [5] [µg/mL] | IC50 (MetRS (T. brucei)) [nM] | IC50 (MetRS (C. parvum)) [nM] | MIC (S. pyogenes (ATCC 19615); [9]) [µg/mL] | EC50 (C. parvum; Cryptosporidium parvum) [nM] | EC50 (C. parvum) [nM] |
| --- | --- | --- | --- | --- | --- | --- | --- | --- | --- | --- | --- | --- | --- | --- | --- | --- |
| Fc1ccc2nc(NCCCNCc3cc(Cl)cc(Cl)c3)[nH]c2n1 [Compound 1614, [(3,5-dichlorophenyl)methyl][3-({5-fluoro-3H-imidazo[4,5-b]pyridin-2-yl}amino)propyl]amine] | > 10 | 5 (≈ 13.6 µM) | 1.25 (≈ 3.39 µM) | 0.625 (≈ 1.7 µM) | 10 (≈ 27.2 µM) | 9.8 | 6.6 |  |  |  |  |  |  |  |  |  |
| Fc1ccc2nc(NCCCN[C@@H]3CCNc4c(Cl)cc(Cl)cc43)[nH]c2n1 [Compound 1717, (4R)-6,8-dichloro—N-[3-({5-fluoro-3H-imidazo[4,5-b]pyridin-2-yl}amino)propyl]-1,2,3,4-tetrahydroquinolin-4-amine, reference compound] | 2.5 (≈ 6.11 µM) | 0.156 (≈ 0.381 µM) | 0.078 (≈ 0.191 µM) | 0.039 (≈ 0.0953 µM) | 0.313 (≈ 0.765 µM) | 10.3 | 10.3 | > 20 | > 20 | > 20 | > 20 |  |  |  |  |  |
| CCn1c(Cc2ccc(Cl)cc2Cl)cn(Cc2nc3nc(F)ccc3[nH]2)c1=O [Compound 2062, 4-[(2,4-dichlorophenyl)methyl]-3-ethyl-1-({5-fluoro-1H-imidazo[4,5-b]pyridin-2-yl}methyl)-2,3-dihydro-1H-imidazol-2-one] |  |  | 1.25 (≈ 2.97 µM) | 0.313 (≈ 0.745 µM) | 1.25 (≈ 2.97 µM) | 12.6 | 8.4 |  |  |  |  | < 40 | < 40 |  |  |  |
| CCn1c(Cc2ccc(OC)cc2Cl)cn(Cc2nc3nc(Cl)ccc3[nH]2)c1=O [Compound 2093, 1-({5-chloro-1H-imidazo[4,5-b]pyridin-2-yl}methyl)-4-[(2-chloro-4-methoxyphenyl)methyl]-3-ethyl-2,3-dihydro-1H-imidazol-2-one] | 1.25 (≈ 2.89 µM) | 0.625 (≈ 1.45 µM) | 0.156 (≈ 0.361 µM) | 0.078 (≈ 0.18 µM) | 1.25 (≈ 2.89 µM) | 8.3 | 3.2 | > 20 | > 20 | > 20 | > 20 | < 40 | < 40 | 0.678 (≈ 1.57 µM) | 38 | 33 |
| CCn1c(Cc2ccc(OC)cc2Cl)cn(Cc2nc3nc(F)ccc3[nH]2)c1=O [Compound 2114, 4-[(2-chloro-4-methoxyphenyl)methyl]-3-ethyl-1-({5-fluoro-1H-imidazo[4,5-b]pyridin-2-yl}methyl)-2,3-dihydro-1H-imidazol-2-one] |  | 1.25 (≈ 3.01 µM) | 0.625 (≈ 1.5 µM) | 0.078 (≈ 0.188 µM) | 1.25 (≈ 3.01 µM) | 15.2 | 7.7 |  |  |  |  | < 40 | < 40 | 0.754 (≈ 1.81 µM) | 53 |  |
| COc1cc(Cl)c(-c2cccc3nc(Cc4nc5nc(Cl)ccc5[nH]4)cn23)cc1OC [Compound 2144, 2-({5-chloro-1H-imidazo[4,5-b]pyridin-2-yl}methyl)-5-(2-chloro-4,5-dimethoxyphenyl)imidazo[1,2-a]pyridine] | 1.25 (≈ 2.75 µM) | 0.156 (≈ 0.343 µM) | 0.0195 (≈ 0.0429 µM) | 0.0195 (≈ 0.0429 µM) | 0.313 (≈ 0.689 µM) | 16.4 | 6.5 | > 20 | > 20 | > 20 | > 20 | < 40 | 40.9 |  | > 2000 |  |
| CC(=O)NC[C@H]1CN(c2ccc(N3CCOCC3)c(F)c2)C(=O)O1 [LNZ, linezolid] | 1.25 (≈ 3.71 µM) | 0.625 (≈ 1.85 µM) | 2.5 (≈ 7.41 µM) | 2.5 (≈ 7.41 µM) | 0.625 (≈ 1.85 µM) |  |  |  |  |  |  |  |  |  |  |  |
